Data taken from the NIST ThermoML archive (doi:10.1021/je060271a).
Values joined by “and” are separate entries in the source; they are usually repeats but may differ in a detail not shown here. Equal entries are not always repeated. ± gives the expanded uncertainty stated by the source.

Details: Liquid, Vibrating tube method

CCCCCCCC(=O)OCC(COC(=O)CCCCCCC)(COC(=O)CCCCCCC)COC(=O)CCCCCCC [pentaerythritol tetraoctanoate]
Details | mass density
323.16 K, 4757.8 kPa | 943.8 ± 1.2 kg/m3
323.16 K, 4775.8 kPa | 944 ± 1.2 kg/m3
323.16 K, 4790.7 kPa | 943.8 ± 1.2 kg/m3
323.16 K, 4806.4 kPa | 943.9 ± 1.2 kg/m3
323.16 K, 4825.1 kPa | 943.9 ± 1.2 kg/m3
323.16 K, 4840.2 kPa | 943.9 ± 1.2 kg/m3
323.16 K, 4856.4 kPa | 943.9 ± 1.2 kg/m3
323.16 K, 4875.1 kPa | 943.9 ± 1.2 kg/m3
323.16 K, 5122 kPa | 944.1 ± 1.2 kg/m3
323.16 K, 5143.5 kPa | 944.1 ± 1.2 kg/m3
323.16 K, 5161 kPa | 944.2 ± 1.2 kg/m3
323.16 K, 5179 kPa | 944.2 ± 1.2 kg/m3
323.16 K, 5197.1 kPa | 944.1 ± 1.2 kg/m3
323.16 K, 5335.6 kPa | 944.3 ± 1.2 kg/m3
323.16 K, 5398.2 kPa | 944.3 ± 1.2 kg/m3
323.16 K, 5417.6 kPa | 944.3 ± 1.2 kg/m3
323.16 K, 5438 kPa | 944.3 ± 1.2 kg/m3
323.16 K, 5461.9 kPa | 944.3 ± 1.2 kg/m3
323.16 K, 5481.8 kPa | 944.5 ± 1.2 kg/m3
323.16 K, 5502.5 kPa | 944.5 ± 1.2 kg/m3
323.16 K, 5527.1 kPa | 944.4 ± 1.2 kg/m3
323.16 K, 5547.9 kPa | 944.4 ± 1.2 kg/m3
323.16 K, 5568.6 kPa | 944.4 ± 1.2 kg/m3
323.16 K, 5590.2 kPa | 944.4 ± 1.2 kg/m3
323.16 K, 5611.9 kPa | 944.4 ± 1.2 kg/m3
323.16 K, 5637.6 kPa | 944.4 ± 1.2 kg/m3
323.16 K, 5659.6 kPa | 944.4 ± 1.2 kg/m3
323.16 K, 5703.9 kPa | 944.5 ± 1.2 kg/m3
323.16 K, 5774.4 kPa | 944.6 ± 1.2 kg/m3
323.16 K, 5797.1 kPa | 944.6 ± 1.2 kg/m3
323.16 K, 5824.6 kPa | 944.7 ± 1.2 kg/m3
323.16 K, 5870.9 kPa | 944.6 ± 1.2 kg/m3
323.16 K, 6078.5 kPa | 944.7 ± 1.2 kg/m3
323.16 K, 6238.8 kPa | 944.8 ± 1.2 kg/m3
323.16 K, 6265.6 kPa | 944.9 ± 1.2 kg/m3
323.16 K, 6297.7 kPa | 944.9 ± 1.2 kg/m3
323.16 K, 6324.9 kPa | 944.9 ± 1.2 kg/m3
323.16 K, 6352.7 kPa | 944.9 ± 1.2 kg/m3
323.16 K, 6380.2 kPa | 944.9 ± 1.2 kg/m3
323.16 K, 12370 kPa | 948.8 ± 1.2 kg/m3
323.16 K, 12396 kPa | 948.8 ± 1.2 kg/m3
323.16 K, 12424 kPa | 948.8 ± 1.2 kg/m3
323.16 K, 20026 kPa | 953.6 ± 1.2 kg/m3
323.16 K, 21868 kPa | 954.6 ± 1.2 kg/m3
323.16 K, 21910 kPa | 954.7 ± 1.2 kg/m3
323.16 K, 22807 kPa | 955.3 ± 1.2 kg/m3
323.16 K, 27149 kPa | 957.8 ± 1.2 kg/m3
323.16 K, 27197 kPa | 957.9 ± 1.2 kg/m3
323.16 K, 27237 kPa | 957.9 ± 1.2 kg/m3
323.16 K, 27277 kPa | 957.9 ± 1.2 kg/m3
323.16 K, 27317 kPa | 957.9 ± 1.2 kg/m3
323.16 K, 27366 kPa | 957.9 ± 1.2 kg/m3
323.16 K, 27451 kPa | 958 ± 1.2 kg/m3
323.16 K, 27504 kPa | 958 ± 1.2 kg/m3
323.16 K, 27997 kPa | 958.3 ± 1.2 kg/m3
323.16 K, 28020 kPa | 958.4 ± 1.2 kg/m3
323.16 K, 28046 kPa | 958.3 ± 1.2 kg/m3
323.16 K, 28069 kPa | 958.3 ± 1.2 kg/m3
343.14 K, 4667.8 kPa | 929.4 ± 1.1 kg/m3
343.14 K, 4690.1 kPa | 929.4 ± 1.1 kg/m3
343.14 K, 8016.3 kPa | 931.8 ± 1.2 kg/m3
343.14 K, 8048.6 kPa | 931.8 ± 1.2 kg/m3
343.14 K, 8086.2 kPa | 932 ± 1.2 kg/m3
343.14 K, 8118.6 kPa | 931.9 ± 1.2 kg/m3
343.14 K, 8397.9 kPa | 932.1 ± 1.2 kg/m3
343.14 K, 8438.9 kPa | 932.1 ± 1.2 kg/m3
343.14 K, 8473.8 kPa | 932.1 ± 1.2 kg/m3
343.14 K, 8822.1 kPa | 932.4 ± 1.2 kg/m3
343.14 K, 8860.4 kPa | 932.5 ± 1.2 kg/m3
343.14 K, 8906.8 kPa | 932.5 ± 1.2 kg/m3
343.14 K, 8945 kPa | 932.5 ± 1.2 kg/m3
343.14 K, 9418.7 kPa | 932.8 ± 1.2 kg/m3
343.14 K, 10399 kPa | 933.5 ± 1.2 kg/m3
343.14 K, 11681 kPa | 934.4 ± 1.2 kg/m3
343.14 K, 13765 kPa | 935.9 ± 1.2 kg/m3
343.14 K, 16874 kPa | 938 ± 1.2 kg/m3
343.14 K, 17179 kPa | 938.2 ± 1.2 kg/m3
343.14 K, 17211 kPa | 938.2 ± 1.2 kg/m3
343.14 K, 17250 kPa | 938.2 ± 1.2 kg/m3
343.14 K, 17283 kPa | 938.3 ± 1.2 kg/m3
343.14 K, 17315 kPa | 938.2 ± 1.2 kg/m3
343.14 K, 20086 kPa | 940.3 ± 1.2 kg/m3
343.14 K, 20133 kPa | 940.1 ± 1.2 kg/m3
343.14 K, 20456 kPa | 940.4 ± 1.2 kg/m3
343.14 K, 20478 kPa | 940.5 ± 1.2 kg/m3
343.14 K, 20501 kPa | 940.3 ± 1.2 kg/m3
343.14 K, 22979 kPa | 942 ± 1.2 kg/m3
343.14 K, 24214 kPa | 942.8 ± 1.2 kg/m3
343.14 K, 26657 kPa | 944.4 ± 1.2 kg/m3
343.14 K, 30407 kPa | 946.7 ± 1.2 kg/m3
343.14 K, 30444 kPa | 946.7 ± 1.2 kg/m3
343.14 K, 30488 kPa | 946.6 ± 1.2 kg/m3
343.14 K, 30968 kPa | 947 ± 1.2 kg/m3
343.14 K, 32801 kPa | 948 ± 1.2 kg/m3
343.15 K, 105.1 kPa | 926 ± 1.1 kg/m3
343.15 K, 105.3 kPa | 926.1 ± 1.1 kg/m3 and 926 ± 1.1 kg/m3 and 926.2 ± 1.1 kg/m3
343.15 K, 105.5 kPa | 926 ± 1.1 kg/m3
343.15 K, 105.6 kPa | 925.9 ± 1.1 kg/m3
343.15 K, 106 kPa | 926.1 ± 1.1 kg/m3
343.15 K, 108.9 kPa | 926 ± 1.1 kg/m3
343.15 K, 123.5 kPa | 926.1 ± 1.1 kg/m3
343.15 K, 154.3 kPa | 926 ± 1.1 kg/m3
343.15 K, 224 kPa | 926.1 ± 1.1 kg/m3
343.15 K, 227.5 kPa | 926.1 ± 1.1 kg/m3
343.15 K, 231.8 kPa | 926 ± 1.1 kg/m3
343.15 K, 235.3 kPa | 926.1 ± 1.1 kg/m3
343.15 K, 239.5 kPa | 926.1 ± 1.1 kg/m3
343.15 K, 243.8 kPa | 926.3 ± 1.1 kg/m3
343.15 K, 248 kPa | 926.2 ± 1.1 kg/m3
343.15 K, 253 kPa | 926.2 ± 1.1 kg/m3
343.15 K, 257.4 kPa | 926.1 ± 1.1 kg/m3
343.15 K, 262.8 kPa | 926.2 ± 1.1 kg/m3
343.15 K, 268.2 kPa | 926.1 ± 1.1 kg/m3
343.15 K, 273.2 kPa | 926.1 ± 1.1 kg/m3
343.15 K, 279.6 kPa | 926.1 ± 1.1 kg/m3
343.15 K, 285.2 kPa | 926.2 ± 1.1 kg/m3
343.15 K, 292.1 kPa | 926.2 ± 1.1 kg/m3
343.15 K, 299.6 kPa | 926.2 ± 1.1 kg/m3
343.15 K, 305.7 kPa | 926.2 ± 1.1 kg/m3
343.15 K, 313.9 kPa | 926.1 ± 1.1 kg/m3
343.15 K, 321 kPa | 926.1 ± 1.1 kg/m3
343.15 K, 329.7 kPa | 926.3 ± 1.1 kg/m3
343.15 K, 338 kPa | 926.3 ± 1.1 kg/m3
343.15 K, 347.9 kPa | 926.2 ± 1.1 kg/m3
343.15 K, 358.4 kPa | 926.1 ± 1.1 kg/m3
343.15 K, 367.9 kPa | 926.2 ± 1.1 kg/m3
343.15 K, 379.9 kPa | 926.1 ± 1.1 kg/m3
343.15 K, 392.9 kPa | 926.3 ± 1.1 kg/m3
343.15 K, 404.2 kPa | 926 ± 1.1 kg/m3
343.15 K, 419.5 kPa | 926.3 ± 1.1 kg/m3
343.15 K, 433.8 kPa | 926.1 ± 1.1 kg/m3
343.15 K, 449.4 kPa | 926.1 ± 1.1 kg/m3
343.15 K, 460.9 kPa | 926.1 ± 1.1 kg/m3
343.15 K, 471.1 kPa | 926.2 ± 1.1 kg/m3
343.15 K, 480.2 kPa | 926.3 ± 1.1 kg/m3
343.15 K, 491.8 kPa | 926.5 ± 1.1 kg/m3
343.15 K, 504 kPa | 926.2 ± 1.1 kg/m3
343.15 K, 514.2 kPa | 926.3 ± 1.1 kg/m3
343.15 K, 527.6 kPa | 926.3 ± 1.1 kg/m3
343.15 K, 538.9 kPa | 926.2 ± 1.1 kg/m3
343.15 K, 553.3 kPa | 926.3 ± 1.1 kg/m3
343.15 K, 568.4 kPa | 926.4 ± 1.1 kg/m3
343.15 K, 582.5 kPa | 926.4 ± 1.1 kg/m3
343.15 K, 596.2 kPa | 926.4 ± 1.1 kg/m3
343.15 K, 613.8 kPa | 926.4 ± 1.1 kg/m3
343.15 K, 632.2 kPa | 926.4 ± 1.1 kg/m3
343.15 K, 648.4 kPa | 926.4 ± 1.1 kg/m3
